Legend:
[1] = target: T1, HER2 kinase (Homo sapiens, UniProt P04626); test: HER2 kinase assay (ULight peptide / Eu-PT66 antibody detection); type: biochemical
T1 construct: purchased Carna Biosciences 08-016
Description: Reagents and consumables: ULight™-labeled Ploy GT Peptide (Perkin Elmer, Cat. No. TRF-0100-M); ULight™-labeled JAK-1 (Try1023) Peptide (Perkin Elmer, Cat. No. TRF-0121-M); Eu-W1024-labeled Anti-Phosphotyrosine Antibody (PT66) (Perkin Elmer, Cat. No. AD0068); 10×Detection Buffer (Perkin Elmer, Cat. No. CR97-100); HER2 Kinase (Carna Biosciences, Cat. No. 08-016); EGFR kinase (Carna Biosciences, Cat. No. 08-115); HEPES (GIBCO, Cat. No. 15630-080); EGTA (Sigma, Cat. No. 03777-10G); EDTA (Sigma, Cat. No. EDS-100G); MgCl2 (Sigma, Cat. No. 63069-100ML); DTT (Sigma, Cat. No. 43816-10ML); Tween-20 (Sigma, Cat. No. P7949-100ML); DMSO (Life Science, Cat. No. 0231-500ML); 384-well plates (Perkin Elmer, Cat. No. 607290); multifunctional plate reader (Perkin Elmer, Cat. No. Envision)
Preparation of compound solution: The assay compound was dissolved in DMSO to form a 10 mM stock solution. Prior to use, the compound was diluted to 0.25 mM in DMSO (100 times the final concentration of the diluent) and then subjected to a 3-fold concentration gradient dilution to obtain a total of 11 concentrations. The solution was diluted with buffer to a diluent with 4× the final concentration when the drug was added.
HER2 kinase assay: buffer was prepared, and 40 nM 4× HER2 kinase solution, 40 μM 4× ATP solution, and 400 nM 4×ULight™-labeled Ploy GT Peptide substrate solution were prepared using the buffer. After the preparation was completed, the enzyme was mixed with different concentrations of compounds pre-prepared by dilution, and the mixture was left to stand at room temperature for 5 min. Each concentration was performed in duplicate. The corresponding substrate and ATP were added and the mixture was reacted at room temperature for 120 minutes (with negative and positive controls). After completion of the reaction, PT66 detection antibody was added. The mixture was incubated at room temperature for 60 minutes, and then detected by Envision.
Data Calculation: the reading of well and inhibition rate were calculated using Excel, wherein reading of well=10000*(well EU665 value)/(well EU615 value), and inhibition rate=[(reading of positive control well−reading of assay well)/(reading of positive control well−reading of negative control well)]*100%. Compound concentrations and corresponding inhibition rates were input into GraphPad Prism for processing to calculate IC50 values.

[2] = target: Ba/F3 EGFR D770_N771insSVD cells (Homo sapiens, UniProt P00533, DUP768-770, cells depend on it); test: Inhibition of cell proliferation, CTG method, Ba/F3 EGFR D770_N771insSVD; type: cell-based; conditions: 72 hours, read-out: Ba/F3 EGFR D770_N771insSVD IC50
Description: (§1) The present application examined the in vitro anti-proliferative activity of the compounds of the present disclosure against in vitro cultured HCC-827, Ba/F3-EGFR-VIII and Ba/F3 EGFR D770_N771insSVD cell lines by CTG method.
(§2) Reagents and consumables: RPMI1640 (ThermoFisher, Cat. No. C11875500BT); DMEM (ThermoFisher, C11995500BT); fetal bovine serum (Hyclone, Cat. No. SV30087.03); 0.25% trypsin-EDTA (ThermoFisher, Cat. No. 25200072); penicillin-streptomycin (Hyclone, Cat. No. SV30010); DMSO (Life Science, Cat. No. 0231-500ML); CTG assay kit (Promega, Cat. No. G9243); 96-well plate (Corning, Cat. No. 3599); multifunctional plate reader (Perkin Elmer, Cat. No. Envision)
(§3) Cell lines: HCC-827 (from ATCC), Ba/F3-EGFR-VIII and Ba/F3 EGFR D770_N771insSVD (all from KYinno Biotechnology (Beijing) Co., Ltd.); all of the above cells were cultured with RPMI1640 medium containing 10% fetal bovine serum, 100 U/mL penicillin, and 100 μg/mL streptomycin in the culture process, and HCC-827 was cultured with DMEM medium containing 10% fetal bovine serum, 100 U/mL penicillin, and 100 μg/mL streptomycin.
(§4) • 1. The assay compound was dissolved with DMSO to form a stock solution and a gradient dilution was performed, followed by dilution with the corresponding medium to obtain a solution with 5-fold working concentration. • 2. Cells in logarithmic growth phase were adjusted to specific cell densities by dilution with culture medium, and 80 μL of cell suspension was added to a 96-well plate, such that plating densities of cells of HCC-827, Ba/F3-EGFR-VIII and Ba/F3 EGFR D770_N771insSVD were all 3000 cells/well. The cells of Ba/F3-EGFR-VIII and Ba/F3 EGFR D770_N771insSVD were used directly in the next step (treatment with compound), whereas the HCC-827 needed to be cultured overnight in a 37° C., 5% carbon dioxide gas incubator to adhere to the wall, and then treated with compounds. • 3. 20 μL of compound solution was added to each well of the 96-well plate that had been inoculated with cells. The highest concentration of the assayed compound was 10 μM, 4-fold serial dilution, a total of 9 concentrations, and duplicate wells. A control group without compound was also set up. • 4. The cells were cultured for another 72 hours, and then cell viability was detected by CTG assay kit. Signal values were read with a multifunctional plate reader (Perkin Elmer). GraphPad Prism software was used to create a dose-response curve and IC50 was calculated.

[3] = target: Ba/F3-EGFR-VIII cells (Homo sapiens, UniProt P00533, DELINS30-297G, cells depend on it); test: Inhibition of cell proliferation, CTG method, Ba/F3-EGFR-VIII; type: cell-based; conditions: 72 hours, read-out: Ba/F3 EGFRvIII IC50
Description: as §1, §2, §3, §4

T1 sequence (P04626 23-1255): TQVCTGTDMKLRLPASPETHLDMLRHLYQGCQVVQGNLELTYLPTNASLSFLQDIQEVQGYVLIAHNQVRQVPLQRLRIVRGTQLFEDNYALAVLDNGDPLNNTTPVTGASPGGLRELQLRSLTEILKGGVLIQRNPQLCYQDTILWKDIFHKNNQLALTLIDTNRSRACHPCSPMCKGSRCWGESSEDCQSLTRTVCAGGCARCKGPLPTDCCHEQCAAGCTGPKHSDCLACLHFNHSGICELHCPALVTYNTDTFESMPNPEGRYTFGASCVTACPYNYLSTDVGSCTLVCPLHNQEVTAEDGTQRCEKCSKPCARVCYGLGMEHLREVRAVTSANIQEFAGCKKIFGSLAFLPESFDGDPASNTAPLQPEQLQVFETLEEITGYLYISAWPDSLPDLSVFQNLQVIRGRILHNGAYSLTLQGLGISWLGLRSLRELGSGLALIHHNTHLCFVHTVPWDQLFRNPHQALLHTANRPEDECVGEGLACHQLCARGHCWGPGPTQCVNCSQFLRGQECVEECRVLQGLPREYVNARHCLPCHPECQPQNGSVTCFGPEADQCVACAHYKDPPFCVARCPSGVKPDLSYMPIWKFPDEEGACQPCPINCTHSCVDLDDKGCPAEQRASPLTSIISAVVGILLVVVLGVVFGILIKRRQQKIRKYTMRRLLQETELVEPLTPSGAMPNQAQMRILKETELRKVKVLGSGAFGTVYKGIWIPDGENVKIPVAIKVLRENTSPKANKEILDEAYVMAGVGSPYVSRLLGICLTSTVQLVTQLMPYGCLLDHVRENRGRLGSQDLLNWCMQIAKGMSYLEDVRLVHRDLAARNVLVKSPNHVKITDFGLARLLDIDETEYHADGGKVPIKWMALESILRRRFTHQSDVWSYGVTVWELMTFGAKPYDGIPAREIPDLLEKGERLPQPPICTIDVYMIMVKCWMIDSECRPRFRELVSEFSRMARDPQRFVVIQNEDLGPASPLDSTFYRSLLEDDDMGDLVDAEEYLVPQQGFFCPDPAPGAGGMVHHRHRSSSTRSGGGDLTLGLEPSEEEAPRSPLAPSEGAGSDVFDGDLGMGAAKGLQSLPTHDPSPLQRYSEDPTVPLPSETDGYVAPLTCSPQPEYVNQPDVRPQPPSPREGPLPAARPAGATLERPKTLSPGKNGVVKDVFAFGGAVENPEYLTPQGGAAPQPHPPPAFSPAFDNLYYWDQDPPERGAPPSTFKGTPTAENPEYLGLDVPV
Ba/F3-EGFR-VIII cells, sequence (P00533 with tags, fused parts or gaps DELINS30-297G): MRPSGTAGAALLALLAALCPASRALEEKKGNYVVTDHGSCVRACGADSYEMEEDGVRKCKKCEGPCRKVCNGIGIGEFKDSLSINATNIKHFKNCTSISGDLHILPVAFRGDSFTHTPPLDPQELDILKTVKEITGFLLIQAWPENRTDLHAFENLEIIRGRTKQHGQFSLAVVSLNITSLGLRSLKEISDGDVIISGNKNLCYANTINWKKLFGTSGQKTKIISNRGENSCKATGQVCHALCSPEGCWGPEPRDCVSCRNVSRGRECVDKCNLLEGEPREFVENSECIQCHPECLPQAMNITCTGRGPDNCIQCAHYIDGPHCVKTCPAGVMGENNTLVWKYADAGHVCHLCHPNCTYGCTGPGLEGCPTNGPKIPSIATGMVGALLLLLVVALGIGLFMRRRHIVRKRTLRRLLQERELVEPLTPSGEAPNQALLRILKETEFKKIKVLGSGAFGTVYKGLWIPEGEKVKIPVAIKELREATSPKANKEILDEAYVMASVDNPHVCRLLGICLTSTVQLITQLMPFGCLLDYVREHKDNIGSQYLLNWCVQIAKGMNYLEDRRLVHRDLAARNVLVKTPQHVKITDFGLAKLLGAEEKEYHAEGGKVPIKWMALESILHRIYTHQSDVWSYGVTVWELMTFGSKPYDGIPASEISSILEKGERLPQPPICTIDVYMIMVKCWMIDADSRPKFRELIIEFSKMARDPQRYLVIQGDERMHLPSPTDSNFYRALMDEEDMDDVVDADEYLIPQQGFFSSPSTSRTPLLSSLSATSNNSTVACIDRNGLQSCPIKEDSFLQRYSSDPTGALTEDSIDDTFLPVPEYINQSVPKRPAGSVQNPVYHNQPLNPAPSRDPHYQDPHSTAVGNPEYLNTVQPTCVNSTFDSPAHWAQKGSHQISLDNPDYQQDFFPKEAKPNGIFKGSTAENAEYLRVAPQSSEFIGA
Ba/F3 EGFR D770_N771insSVD cells, sequence (P00533 with tags, fused parts or gaps DUP768-770): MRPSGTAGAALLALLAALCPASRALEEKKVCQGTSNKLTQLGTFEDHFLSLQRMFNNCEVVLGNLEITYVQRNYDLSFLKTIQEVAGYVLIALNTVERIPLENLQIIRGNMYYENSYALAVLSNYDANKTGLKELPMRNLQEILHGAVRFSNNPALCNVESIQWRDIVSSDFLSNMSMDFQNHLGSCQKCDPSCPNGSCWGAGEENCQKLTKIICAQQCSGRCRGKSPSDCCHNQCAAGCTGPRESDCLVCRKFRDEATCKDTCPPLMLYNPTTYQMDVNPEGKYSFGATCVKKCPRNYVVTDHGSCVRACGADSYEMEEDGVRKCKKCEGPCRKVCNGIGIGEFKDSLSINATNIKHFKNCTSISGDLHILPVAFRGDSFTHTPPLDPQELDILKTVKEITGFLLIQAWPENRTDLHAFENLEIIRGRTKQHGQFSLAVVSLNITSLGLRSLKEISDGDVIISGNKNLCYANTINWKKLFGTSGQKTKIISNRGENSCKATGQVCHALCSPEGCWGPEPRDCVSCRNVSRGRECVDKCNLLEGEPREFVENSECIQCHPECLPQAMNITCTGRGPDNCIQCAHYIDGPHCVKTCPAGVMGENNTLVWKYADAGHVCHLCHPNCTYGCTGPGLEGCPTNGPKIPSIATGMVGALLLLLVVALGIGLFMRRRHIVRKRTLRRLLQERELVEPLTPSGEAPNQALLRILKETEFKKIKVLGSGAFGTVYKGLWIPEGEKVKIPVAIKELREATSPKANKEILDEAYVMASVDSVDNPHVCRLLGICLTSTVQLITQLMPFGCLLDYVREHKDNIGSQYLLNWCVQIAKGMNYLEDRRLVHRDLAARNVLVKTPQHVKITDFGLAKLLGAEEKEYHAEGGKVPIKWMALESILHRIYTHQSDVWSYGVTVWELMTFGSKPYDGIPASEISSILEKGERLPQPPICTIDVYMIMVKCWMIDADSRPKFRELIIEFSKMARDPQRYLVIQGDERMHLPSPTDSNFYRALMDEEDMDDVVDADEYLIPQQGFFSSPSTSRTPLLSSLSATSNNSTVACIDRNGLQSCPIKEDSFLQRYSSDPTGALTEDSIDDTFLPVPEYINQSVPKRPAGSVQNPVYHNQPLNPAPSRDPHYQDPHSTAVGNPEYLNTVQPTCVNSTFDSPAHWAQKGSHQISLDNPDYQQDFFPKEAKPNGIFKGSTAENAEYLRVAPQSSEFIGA

COc1c(NC(=O)/C=C/CN(C)C)ccc2ncnc(Nc3cccc(Cl)c3F)c12 [Example 1, (E)-N-(4-((3-chloro-2-fluorophenyl)amino)-5-methoxyquinazolin-6-yl)-4-(dimethylamino)but-2-enamide]
IC50 [1]: 100 to 1000 nM | GI50 [2]: 50 to 500 nM | GI50 [3]: ≤ 5 nM
